Laboratory results from patent publication US20160313301A1, “METHOD FOR PREDICTING ANTITUMOR EFFICACY OF HSP90 INHIBITOR IN CANCER TREATMENT” (NIPPON KAYAKU KABUSHIKI KAISHA, priority 2013, published 2016).
Entries after “also recorded” stand apart in the source; their conditions may differ.

Tests used:
Assay type in all cases: in vivo
[1] = system: human ovarian cancer cells 2008; test: Anti-tumor test in mice transplanted subcutaneously with tumor (2008); settings: 2008 s.c. in mice
Experimental: (§1) Human ovarian cancer cell lines OC-10-JCK, OC-11-JCK, and TOGY-18, and a human breast cancer cell line MC-19-JCK were obtained from Central Institute for Experimental Animals. Cryopreserved tumor pieces were thawed, and then OC-10-JCK, OC-11-JCK, and MC-19-JCK were transplanted subcutaneously to SCID mice, while TOGY-18 was transplanted subcutaneously to nude mice. After the tumors were grown, the tumors were removed and cut into tumor pieces. The tumor pieces were transplanted subcutaneously to SCID mice or nude mice with trocars. The tumors were maintained by repeated transplantation in the same manner as described above to prepare tumors to be transplanted. Human ovarian cancer cell lines ES-2, SK-OV-3, OV-90, and TOV-21G, and a human lung cancer cell line NCI-H1975 were obtained from American Type Culture Collection (ATCC). The SK-OV-3 and NCI-H1975 cell lines were grown in recommended culture media, of which about 1×10^7 cells were suspended into HBSS and then injected subcutaneously to SCID mice. After the cells formed tumors, the tumors were removed and cut into tumor pieces. The tumor pieces were transplanted subcutaneously to SCID mice with trocars. The tumors were maintained by repeated transplantation in the same manner as described above to prepare tumors to be transplanted. […]

[2] = system: human ovarian cancer cells OC-11-JCK; test: Anti-tumor test in mice transplanted subcutaneously with tumor (OC-11-JCK); settings: OC-11-JCK s.c. in mice; 40 mg/kg tail vein three times at 4 day intervals
Experimental: as §1

[3] = system: human ovarian cancer cells SK-OV-3; test: Anti-tumor test in mice transplanted subcutaneously with tumor (SK-OV-3); settings: SK-OV-3 s.c. in mice
Experimental: as §1

[4] = system: human ovarian cancer cells OV-90; test: Anti-tumor test in mice transplanted subcutaneously with tumor (OV-90); settings: OV-90 s.c. in mice
Experimental: as §1

[5] = system: human ovarian cancer cells OVCAR-3; test: Anti-tumor test in mice transplanted subcutaneously with tumor (OVCAR-3)
[6] = system: human ovarian cancer cells TOV-21G; test: Anti-tumor test in mice transplanted subcutaneously with tumor (TOV-21G); settings: TOV-21G s.c. in mice
Experimental: as §1

[7] = system: human ovarian cancer cells TOGY-18; test: Anti-tumor test in mice transplanted subcutaneously with tumor (TOGY-18); settings: TOGY-18 s.c. in mice; 40 mg/kg tail vein three times at 4 day intervals
Experimental: as §1

[8] = system: human ovarian cancer cells OC-11-JCK/PTX; test: Anti-tumor test in mice transplanted subcutaneously with tumor (OC-11-JCK/PTX); settings: OC-11-JCK/PTX s.c. in mice
Experimental: Human ovarian cancer cell lines OC-10-JCK, OC-11-JCK, and TOGY-18, and a human breast cancer cell line MC-19-JCK were obtained from Central Institute for Experimental Animals. Cryopreserved tumor pieces were thawed, and then OC-10-JCK, OC-11-JCK, and MC-19-JCK were transplanted subcutaneously to SCID mice, while TOGY-18 was transplanted subcutaneously to nude mice. After the tumors were grown, the tumors were removed and cut into tumor pieces. The tumor pieces were transplanted subcutaneously to SCID mice or nude mice with trocars. The tumors were maintained by repeated transplantation in the same manner as described above to prepare tumors to be transplanted. Human ovarian cancer cell lines ES-2, SK-OV-3, OV-90, and TOV-21G, and a human lung cancer cell line NCI-H1975 were obtained from American Type Culture Collection (ATCC). The SK-OV-3 and NCI-H1975 cell lines were grown in recommended culture media, of which about 1×10^7 cells were suspended into HBSS and then injected subcutaneously to SCID mice. After the cells formed tumors, the tumors were removed and cut into tumor pieces. The tumor pieces were transplanted subcutaneously to SCID mice with trocars. The tumors were maintained by repeated transplantation in the same manner as described above to prepare tumors to be transplanted. The OV-90 cell line was grown in a recommended culture medium, of which about 1×10^6 cells were suspended into HBSS and then injected subcutaneously to SCID mice. After the cells formed a tumor, the tumor was subjected to an anti-tumor test. The TOV-21G cell line was grown in a recommended culture medium, of which about 1×10^7 cells were suspended into HBSS and then injected subcutaneously to SCID mice. After the cells formed a tumor, the tumor was subjected to the anti-tumor test. The ES-2 cell line was grown in a recommended culture medium, suspended into HBSS, and then injected subcutaneously to nude mice. After the cells formed a tumor, the tumor was removed and cut into tumor pieces. The tumor pieces were transplanted subcutaneously to nude mice with a trocar. […]

[9] = 40 mg/kg tail vein three times at 4 day intervals

`CC(C)c1cc(-c2n[nH]c(=O)n2-c2ccc(CN3CCN(C)CC3)cc2)c(O)cc1O` [A-1, 5-(2,4-dihydroxy-5-isopropyl-phenyl)-4-[4-(4-methyl-piperazin-1-ylmethyl)-phenyl]-2,4-dihydro-[1,2,4]triazol-3-one] was tested, and the “anti-tumor effect (in words)” value [1] was “lowly effective”, the “T/C % (lowest value from the beginning to the 21st day of administration)” value [1, 9] was 51.7% and the “T/C % (lowest value from the beginning to the 21st day of administration)” value [2] was 36.0%. For the same molecule, the “anti-tumor effect (in words)” value [3] was “relatively highly effective”, the “T/C % (lowest value from the beginning to the 21st day of administration)” value [3, 9] was 3.0% and the “anti-tumor effect (in words)” value [4] was “relatively highly effective”. For the same molecule, the “T/C % (lowest value from the beginning to the 21st day of administration)” value [4, 9] was 30.4%, the “T/C % (lowest value from the beginning to the 21st day of administration)” value ([5]; OVCAR-3 s.c. in NOD/SCID mice, 40 mg/kg tail vein three times at 4 day intervals) was 34.9% and the “anti-tumor effect (in words)” value ([5]; OVCAR-3 s.c. in mice) was “relatively highly effective”. The “anti-tumor effect (in words)” value [6] was “relatively highly effective”, the “T/C % (lowest value from the beginning to the 21st day of administration)” value [6, 9] was 25.0% and the “T/C % (lowest value from the beginning to the 21st day of administration)” value [7] was 45.2%. For the same molecule, the “anti-tumor effect (in words)” value [8] was “hardly effective; also recorded: lowly effective” and the “T/C % (lowest value from the beginning to the 21st day of administration)” value [8, 9] was 62.4%.
